Test results taken from patent US20150017156A1, “ESX-MEDIATED TRANSCRIPTION MODULATORS AND RELATED METHODS” (THE OHIO STATE UNIVERSITY, priority 2011, published 2015).
Like-named read-outs stand apart in the source and are kept apart here.

Assays:
[1] = test system: SCC25 cells; assay: Cell proliferation (CCK-8 reagent), SCC25; type: cell-based; details: Homo sapiens, read-out: IC50 for cell proliferation
Description: (§1) A. EGFR and Her2 levels. […] Cell lysates were prepared and determined for EGFR and Her2 protein levels by immunoblot analyses. B. Cell proliferation. […] (ESXm) for 24 hours. Cell proliferation was assessed using the CCK-8 reagent to detect metabolic active cells. Dose-response curves and IC50 values were generated using GraphPad Prism 4.0 (GraphPad Software, La Jolla, Calif.). […] C. Cell invasion. Cell invasion was determined as described from the cell invasion assay kit (Chemicon International, Temecula, Calif.). […] An aliquot (1×10^5 cells) of the prepared cell suspension was added to the top chamber and 10% FBS was added to the bottom chamber. After 24 hours, non-invading cells were gently removed from the interior of the inserts with a cotton-tipped swab. Invasive cells were stained and visualized. A representative field for each experimental condition is presented. D. Cell migration. Cell migration was determined using the wound healing assay. Cells were seeded and allowed to grow until confluence. […] A representative field for each experimental condition at 0 hour and 24 hours is presented.
(§2) Cell proliferation was assessed using the CCK-8 reagent to detect metabolic active cells. Dose-response curves and IC50 values were generated using GraphPad Prism 4.0 (GraphPad Software, La Jolla, Calif.).

[2] = test system: CAL27 cells; assay: Cell proliferation (CCK-8 reagent), CAL27; type: cell-based; details: Homo sapiens, read-out: IC50 for cell proliferation
Description: as §1, §2

[3] = test system: SkBr3 (erbB2+) cells
Description: Isobolograms were generated by computing dose fractions directly from the IC50s. Dose fraction is defined as the dose of one component in a combination required to exert a given effect (usually IC50, as in this case) divided by the dose of that component in isolation required to exert the same effect. Thus each combination reported has two dose fraction measurements (eg. dose fraction it and dose fraction lapatinib) that define the combinations x/y coordinates on the isobologram.
Dose fraction of A for combination AB=IC50(A in AB)/IC50(A in isolation)
Dose fraction of B for combination AB=IC50(B in AB)/IC50(B in isolation)
The sum of these x/y coordinates are the combination index. By definition, the CI for either agent in isolation is 1. For the null hypothesis (in which both agents act as though they are equivalent doses of the same agent) the CI will be 1. For combinations where the CI<1, synergy is present.
CI(combination index)=dose fraction A+dose fraction B.
For the experiments used to generate dose-effect curves for the isobolograms and selectivity experiments, cells were plated at 3000 cells per well in 96 well plates. […] The day after the final treatment, cell viability was measured using WST-1 reagent (Roche) in accordance with the manufacturer's instructions. […]

[4] = test system: phosphorylated erbB2 levels in SkBr3 cells
Description: ErbB2 and p-erbB2 ELISA: ELISA assays were performed based on those published elsewhere.[4] […] After 24 hours, media was removed carefully and cells were fixed and permeabilized with cold (−20° C.) methanol. The cells were then washed twice with TBST, blocked for 2 hours at room temperature with superblock (TBST solution from Pierce), incubated with the primary antibody overnight at 4° C. (as a 1:500 solution in superblock). Cells were then washed twice more with TBST and incubate with secondary antibody for 2 hours at room temperature (as a 1:1000 solution in superblock). After being washed 3 times with TBST, Slow TMB (Pierce) was added to measure antibody levels in accordance with the manufacturer's instructions and the absorbance at 370 nm was measured. The cells were washed 3 more times with TBST and total protein levels were measured at 560 nm using BCA reagent (Pierce). […] The resulting ratios were then normalized to cells treated with DMSO.

[5] = test system: SKBR3 Her2-positive breast carcinoma cells; details: cited from earlier work
[6] = test system: EGFR and Her2 levels in CAL27 cells; details: 24 hours, immunoblot
Description: (§3) A. EGFR and Her2 levels. […] Cell lysates were prepared and determined for EGFR and Her2 protein levels by immunoblot analyses. B. Cell proliferation. […] Cell proliferation was assessed using the CCK-8 reagent to detect metabolic active cells. Dose-response curves and IC50 values were generated using GraphPad Prism 4.0 (GraphPad Software, La Jolla, Calif.). […] C. Cell invasion. Cell invasion was determined as described from the cell invasion assay kit (Chemicon International, Temecula, Calif.). […] An aliquot (1×10^5 cells) of the prepared cell suspension was added to the top chamber and 10% FBS was added to the bottom chamber. After 24 hours, non-invading cells were gently removed from the interior of the inserts with a cotton-tipped swab. Invasive cells were stained and visualized. A representative field for each experimental condition is presented. D. Cell migration. Cell migration was determined using the wound healing assay. Cells were seeded and allowed to grow until confluence. […] A representative field for each experimental condition at 0 hour and 24 hours is presented.

[7] = test system: CAL27 cells; details: 12.5 μmol/L
Description: as §3

[8] = test system: EGFR and Her2 levels in SCC25 cells; details: 24 hours, immunoblot
Description: as §3

[9] = test system: SCC25 cells; details: 15 μmol/L
Description: as §3

[10] = test system: Her2 expression in SKBR3 cells; details: cited from earlier work
[11] = test system: CAL27 HNSCC cells; assay: Xenograft model of HNSCC, CAL27 in athymic nude mice
[12] = Precipitation in cell culture media; type: physicochemical; details: higher concentrations

Compound `CS(=O)(=O)CCNCc1ccc(-c2ccc3ncnc(Nc4ccc(OCc5cccc(F)c5)c(Cl)c4)c3c2)o1` [lapatinib, reference compound] has an IC50 ([1]; SCC-25, SCC25 cells, 24 hours of treatment, single agent) of 11.9 µM, an IC50 ([2]; CAL-27, CAL27 cells, 24 hours of treatment, single agent) of 11.8 µM and an IC50 [3] of 0.048 ± 0.017 µM. For the same compound, the “effects on erbB2 and phosphorylated erbB2 levels as single agents” value [4] was “moderate effects”.
For `CC(C)C[C@]1(CCO)C[C@H](CN=[N+]=[N-])ON1Cc1ccc(-c2ccccc2)cc1` [biphenyl isoxazolidine], the IC50 ([1]; SCC-25, 24 h) is given as 50.3 µM, the cell proliferation [5] is given as “inhibited cell proliferation” and the “EGFR and Her2 levels” value [6] is given as “dose-dependent decrease”. For the same compound, the Cell invasion [7] was “dramatically suppressed”, the Cell migration [7] was “dramatically suppressed” and the “EGFR and Her2 levels” value [8] was “dose-dependent decrease”. For the same compound, the Cell invasion [9] was “dramatically suppressed”, the Cell migration [9] was “dramatically suppressed” and the Her2 expression [10] was “decreased Her2 expression”. It also gave an IC50 ([2]; CAL-27, 24 h) of 46.8 µM.
With `CN(C)C/C=C/C(=O)Nc1cc2c(Nc3ccc(F)c(Cl)c3)ncnc2cc1O[C@H]1CCOC1` [afatinib] the mean tumor volume [11] was 43 mm^3 and the “mean tumor volume, single-agent afatinib arm compared to the combination treatment arm” value [11] was 2.1 fold.
For `C#Cc1cccc(Nc2ncnc3cc(OCCOC)c(OCCOC)cc23)c1` [erlotinib], the “precipitation out of cell culture media” value [12] was “precipitate out of cell culture media at higher concentrations”.
For `Cc1ccc(S(=O)(=O)n2ccc3c(OCC(O)CN(CCCCCN)C(=O)N4CCC(C5CCN(C(=O)C67CC8CC(CC(C8)C6)C7)CC5)CC4)cccc32)cc1` (stereo not shown) [Wrenchnolol, wrenchnolol, reference compound], the cell proliferation [5] is listed as “inhibited cell proliferation” and the Her2 expression [10] is listed as “decreased Her2 expression”.
